Assay results published in publication PMC6199309, “A therapeutic approach to pantothenate kinase associated neurodegeneration” (Nature Communications, 2018).

What was measured:
Type in all cases: binding
HASPIN = target: T1, HASPIN (Homo sapiens, UniProt Q8TF76); experiment: KINOMEscan; conditions: read-out: %Ctrl @ 10000nM
T1 construct: purchased DiscoverX KINOMEscan

MEK6 = target: T2, MEK6 (Homo sapiens, UniProt P52564); experiment: KINOMEscan; conditions: read-out: %Ctrl @ 10000nM
T2 construct: purchased DiscoverX KINOMEscan

CAMK2D = target: T3, CAMK2D (Homo sapiens, UniProt Q13557); experiment: KINOMEscan; conditions: read-out: %Ctrl @ 10000nM
T3 construct: purchased DiscoverX KINOMEscan

MST1 = target: T4, MST1 (Homo sapiens, UniProt Q13043); experiment: KINOMEscan; conditions: read-out: %Ctrl @ 10000nM
T4 construct: purchased DiscoverX KINOMEscan

MAP4K3 = target: T5, MAP4K3 (Homo sapiens, UniProt Q8IVH8); experiment: KINOMEscan; conditions: read-out: %Ctrl @ 10000nM
T5 construct: purchased DiscoverX KINOMEscan

TIE2 = target: T6, TIE2 (Homo sapiens, UniProt Q02763); experiment: KINOMEscan; conditions: read-out: %Ctrl @ 10000nM
T6 construct: purchased DiscoverX KINOMEscan

DAPK1 = target: T7, DAPK1 (Homo sapiens, UniProt P53355); experiment: KINOMEscan; conditions: read-out: %Ctrl @ 10000nM
T7 construct: purchased DiscoverX KINOMEscan

SGK = target: T8, SGK (Homo sapiens, UniProt O00141); experiment: KINOMEscan; conditions: read-out: %Ctrl @ 10000nM
T8 construct: purchased DiscoverX KINOMEscan

LIMK2 = target: T9, LIMK2 (Homo sapiens, UniProt P53671); experiment: KINOMEscan; conditions: read-out: %Ctrl @ 10000nM
T9 construct: purchased DiscoverX KINOMEscan

PKAC-alpha = target: T10, PKAC-alpha (Homo sapiens, UniProt P17612); experiment: KINOMEscan; conditions: read-out: %Ctrl @ 10000nM
T10 construct: purchased DiscoverX KINOMEscan

CDK4 = target: T11, CDK4 (Homo sapiens, UniProt P11802); experiment: KINOMEscan; conditions: read-out: %Ctrl @ 10000nM
T11 construct: purchased DiscoverX KINOMEscan
T11 sequence (P11802 whole entry): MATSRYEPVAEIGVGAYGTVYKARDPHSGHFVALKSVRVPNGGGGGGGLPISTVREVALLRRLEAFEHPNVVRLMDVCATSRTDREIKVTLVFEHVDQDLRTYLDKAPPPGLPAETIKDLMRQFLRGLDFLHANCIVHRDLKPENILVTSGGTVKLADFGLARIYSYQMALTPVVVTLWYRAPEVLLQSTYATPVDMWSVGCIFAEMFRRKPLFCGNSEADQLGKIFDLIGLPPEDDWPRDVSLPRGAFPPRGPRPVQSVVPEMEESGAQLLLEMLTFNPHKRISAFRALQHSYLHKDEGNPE

MAP3K4 = target: T12, MAP3K4 (Homo sapiens, UniProt Q9Y6R4); experiment: KINOMEscan; conditions: read-out: %Ctrl @ 10000nM
T12 construct: purchased DiscoverX KINOMEscan
T12 sequence (Q9Y6R4 whole entry): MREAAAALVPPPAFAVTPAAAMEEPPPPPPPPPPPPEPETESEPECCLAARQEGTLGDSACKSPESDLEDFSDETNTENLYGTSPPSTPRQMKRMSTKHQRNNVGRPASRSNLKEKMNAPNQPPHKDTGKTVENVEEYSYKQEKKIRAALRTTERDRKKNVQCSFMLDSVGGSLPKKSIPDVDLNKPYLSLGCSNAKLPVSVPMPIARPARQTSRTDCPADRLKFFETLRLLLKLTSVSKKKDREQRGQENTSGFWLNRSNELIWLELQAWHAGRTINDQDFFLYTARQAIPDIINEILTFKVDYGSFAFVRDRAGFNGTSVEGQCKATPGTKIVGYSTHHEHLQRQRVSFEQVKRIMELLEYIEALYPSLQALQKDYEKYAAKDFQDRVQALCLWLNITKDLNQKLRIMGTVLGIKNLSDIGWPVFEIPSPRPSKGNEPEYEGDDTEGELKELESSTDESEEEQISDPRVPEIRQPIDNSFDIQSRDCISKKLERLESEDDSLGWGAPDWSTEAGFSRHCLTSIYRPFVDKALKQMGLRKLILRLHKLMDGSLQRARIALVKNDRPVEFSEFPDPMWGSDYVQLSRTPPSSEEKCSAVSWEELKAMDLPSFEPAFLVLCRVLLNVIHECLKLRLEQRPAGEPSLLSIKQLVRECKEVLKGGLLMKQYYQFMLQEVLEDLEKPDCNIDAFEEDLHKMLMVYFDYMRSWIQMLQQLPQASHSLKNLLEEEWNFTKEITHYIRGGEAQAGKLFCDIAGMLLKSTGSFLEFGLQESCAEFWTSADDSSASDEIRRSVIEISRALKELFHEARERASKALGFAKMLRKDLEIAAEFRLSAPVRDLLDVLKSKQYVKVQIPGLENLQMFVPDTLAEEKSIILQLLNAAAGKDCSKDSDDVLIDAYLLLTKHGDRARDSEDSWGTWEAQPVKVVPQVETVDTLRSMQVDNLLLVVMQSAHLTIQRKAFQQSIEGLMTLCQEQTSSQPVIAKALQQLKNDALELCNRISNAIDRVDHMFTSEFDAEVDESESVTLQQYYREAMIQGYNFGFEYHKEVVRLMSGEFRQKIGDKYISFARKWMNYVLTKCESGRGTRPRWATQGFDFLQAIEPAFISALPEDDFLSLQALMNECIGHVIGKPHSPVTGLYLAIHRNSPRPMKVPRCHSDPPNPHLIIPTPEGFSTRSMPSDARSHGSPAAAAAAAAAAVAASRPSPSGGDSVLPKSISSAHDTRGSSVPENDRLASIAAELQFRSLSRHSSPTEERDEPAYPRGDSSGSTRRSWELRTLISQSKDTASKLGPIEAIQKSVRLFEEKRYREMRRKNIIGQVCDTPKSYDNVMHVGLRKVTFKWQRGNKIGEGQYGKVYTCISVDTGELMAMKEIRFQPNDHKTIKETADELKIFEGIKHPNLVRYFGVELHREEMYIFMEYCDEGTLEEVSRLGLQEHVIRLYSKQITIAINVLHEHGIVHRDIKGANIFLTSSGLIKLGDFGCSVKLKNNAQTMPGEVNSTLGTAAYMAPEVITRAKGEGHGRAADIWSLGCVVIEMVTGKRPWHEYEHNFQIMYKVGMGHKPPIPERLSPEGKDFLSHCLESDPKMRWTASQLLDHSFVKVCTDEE

MET(M1250T) = target: T13, MET(M1250T) (Homo sapiens, UniProt P08581, M1250T); experiment: KINOMEscan; conditions: read-out: %Ctrl @ 10000nM
T13 construct: purchased DiscoverX KINOMEscan

MLK1 = target: T14, MLK1 (Homo sapiens, UniProt P80192); experiment: KINOMEscan; conditions: read-out: %Ctrl @ 10000nM
T14 construct: purchased DiscoverX KINOMEscan
T14 sequence (P80192 whole entry): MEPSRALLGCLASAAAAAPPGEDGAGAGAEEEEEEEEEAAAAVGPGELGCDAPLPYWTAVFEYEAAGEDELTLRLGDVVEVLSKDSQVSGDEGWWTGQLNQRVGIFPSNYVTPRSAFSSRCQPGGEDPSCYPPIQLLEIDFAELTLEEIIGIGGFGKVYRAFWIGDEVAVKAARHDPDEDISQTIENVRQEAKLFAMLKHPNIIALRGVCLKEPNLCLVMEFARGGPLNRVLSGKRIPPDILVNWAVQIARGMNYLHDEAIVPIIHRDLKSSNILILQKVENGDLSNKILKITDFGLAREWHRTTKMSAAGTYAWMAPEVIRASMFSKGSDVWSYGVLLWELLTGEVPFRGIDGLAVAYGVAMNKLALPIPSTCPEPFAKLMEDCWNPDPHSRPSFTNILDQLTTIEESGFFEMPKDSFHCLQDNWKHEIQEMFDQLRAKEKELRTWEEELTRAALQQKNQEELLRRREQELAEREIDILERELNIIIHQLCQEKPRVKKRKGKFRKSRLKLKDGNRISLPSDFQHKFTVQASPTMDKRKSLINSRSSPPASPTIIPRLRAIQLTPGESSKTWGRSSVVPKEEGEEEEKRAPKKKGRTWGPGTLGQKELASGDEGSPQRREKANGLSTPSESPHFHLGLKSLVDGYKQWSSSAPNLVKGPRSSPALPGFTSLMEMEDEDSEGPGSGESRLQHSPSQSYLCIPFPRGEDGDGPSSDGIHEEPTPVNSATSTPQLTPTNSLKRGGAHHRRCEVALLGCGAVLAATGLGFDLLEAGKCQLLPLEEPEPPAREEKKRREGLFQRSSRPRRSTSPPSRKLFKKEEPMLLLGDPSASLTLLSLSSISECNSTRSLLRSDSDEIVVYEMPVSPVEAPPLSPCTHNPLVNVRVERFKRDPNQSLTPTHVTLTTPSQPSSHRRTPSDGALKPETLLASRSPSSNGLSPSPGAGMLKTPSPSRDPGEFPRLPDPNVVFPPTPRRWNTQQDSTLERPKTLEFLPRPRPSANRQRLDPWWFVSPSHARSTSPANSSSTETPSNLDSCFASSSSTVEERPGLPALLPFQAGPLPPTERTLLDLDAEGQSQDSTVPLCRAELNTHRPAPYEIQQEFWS

MEK1 = target: T15, MEK1 (Homo sapiens, UniProt Q02750); experiment: KINOMEscan; conditions: read-out: %Ctrl @ 10000nM
T15 construct: purchased DiscoverX KINOMEscan

MRCKB = target: T16, MRCKB (Homo sapiens, UniProt Q9Y5S2); experiment: KINOMEscan; conditions: read-out: %Ctrl @ 10000nM
T16 construct: purchased DiscoverX KINOMEscan

PRP4 = target: T17, PRP4 (Homo sapiens, UniProt Q13523); experiment: KINOMEscan; conditions: read-out: %Ctrl @ 10000nM
T17 construct: purchased DiscoverX KINOMEscan

NEK4 = target: T18, NEK4 (Homo sapiens, UniProt P51957); experiment: KINOMEscan; conditions: read-out: %Ctrl @ 10000nM
T18 construct: purchased DiscoverX KINOMEscan

WNK1 = target: T19, WNK1 (Homo sapiens, UniProt Q9H4A3); experiment: KINOMEscan; conditions: read-out: %Ctrl @ 10000nM
T19 construct: DNA label for qPCR (T7 phage fusion or DNA tag); purchased DiscoverX scanMAX; host or cells: E. coli BL21-derived (T7 phage) or HEK-293

MAP4K5 = target: T20, MAP4K5 (Homo sapiens, UniProt Q9Y4K4); experiment: KINOMEscan; conditions: read-out: %Ctrl @ 10000nM
T20 construct: purchased DiscoverX KINOMEscan
T20 sequence (Q9Y4K4 whole entry): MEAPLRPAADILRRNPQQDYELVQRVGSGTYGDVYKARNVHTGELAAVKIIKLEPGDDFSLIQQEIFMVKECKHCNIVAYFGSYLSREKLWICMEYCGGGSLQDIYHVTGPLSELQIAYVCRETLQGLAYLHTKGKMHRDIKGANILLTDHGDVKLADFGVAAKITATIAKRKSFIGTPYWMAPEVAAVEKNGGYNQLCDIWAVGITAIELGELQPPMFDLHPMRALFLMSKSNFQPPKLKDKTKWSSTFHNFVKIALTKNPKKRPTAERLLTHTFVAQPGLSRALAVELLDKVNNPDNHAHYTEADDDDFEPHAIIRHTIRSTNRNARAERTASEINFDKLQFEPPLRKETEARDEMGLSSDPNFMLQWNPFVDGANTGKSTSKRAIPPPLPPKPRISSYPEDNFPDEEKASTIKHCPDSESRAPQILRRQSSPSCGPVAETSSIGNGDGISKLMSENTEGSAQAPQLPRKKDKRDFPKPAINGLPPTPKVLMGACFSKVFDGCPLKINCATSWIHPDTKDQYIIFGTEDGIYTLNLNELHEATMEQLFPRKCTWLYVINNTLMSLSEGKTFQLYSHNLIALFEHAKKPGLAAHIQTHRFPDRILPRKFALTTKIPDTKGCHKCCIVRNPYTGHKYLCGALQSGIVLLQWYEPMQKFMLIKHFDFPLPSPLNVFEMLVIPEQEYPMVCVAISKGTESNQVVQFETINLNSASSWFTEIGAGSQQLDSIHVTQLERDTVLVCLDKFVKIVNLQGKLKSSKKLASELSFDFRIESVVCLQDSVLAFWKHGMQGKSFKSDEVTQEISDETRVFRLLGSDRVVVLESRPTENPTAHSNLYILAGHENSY

ALK(C1156Y) = target: T21, ALK(C1156Y) (Homo sapiens, UniProt Q9UM73, C1156Y); experiment: KINOMEscan; conditions: read-out: %Ctrl @ 10000nM
T21 construct: purchased DiscoverX KINOMEscan

ROCK1 = target: T22, ROCK1 (Homo sapiens, UniProt Q13464); experiment: KINOMEscan; conditions: read-out: %Ctrl @ 10000nM
T22 construct: purchased DiscoverX KINOMEscan

BRAF = target: T23, BRAF (Homo sapiens, UniProt P15056); experiment: KINOMEscan; conditions: read-out: %Ctrl @ 10000nM
T23 construct: purchased DiscoverX KINOMEscan

BUB1 = target: T24, BUB1 (Homo sapiens, UniProt O43683); experiment: KINOMEscan; conditions: read-out: %Ctrl @ 10000nM
T24 construct: purchased DiscoverX KINOMEscan

KIT(V559D,T670I) = target: T25, KIT(V559D,T670I) (Homo sapiens, UniProt P10721, T670I/V559D); experiment: KINOMEscan; conditions: read-out: %Ctrl @ 10000nM
T25 construct: purchased DiscoverX KINOMEscan

MET(Y1235D) = target: T26, MET(Y1235D) (Homo sapiens, UniProt P08581, Y1235D); experiment: KINOMEscan; conditions: read-out: %Ctrl @ 10000nM
T26 construct: purchased DiscoverX KINOMEscan

BMPR1A = target: T27, BMPR1A (Homo sapiens, UniProt P36894); experiment: KINOMEscan; conditions: read-out: %Ctrl @ 10000nM
T27 construct: purchased DiscoverX KINOMEscan
T27 sequence (P36894 24-532): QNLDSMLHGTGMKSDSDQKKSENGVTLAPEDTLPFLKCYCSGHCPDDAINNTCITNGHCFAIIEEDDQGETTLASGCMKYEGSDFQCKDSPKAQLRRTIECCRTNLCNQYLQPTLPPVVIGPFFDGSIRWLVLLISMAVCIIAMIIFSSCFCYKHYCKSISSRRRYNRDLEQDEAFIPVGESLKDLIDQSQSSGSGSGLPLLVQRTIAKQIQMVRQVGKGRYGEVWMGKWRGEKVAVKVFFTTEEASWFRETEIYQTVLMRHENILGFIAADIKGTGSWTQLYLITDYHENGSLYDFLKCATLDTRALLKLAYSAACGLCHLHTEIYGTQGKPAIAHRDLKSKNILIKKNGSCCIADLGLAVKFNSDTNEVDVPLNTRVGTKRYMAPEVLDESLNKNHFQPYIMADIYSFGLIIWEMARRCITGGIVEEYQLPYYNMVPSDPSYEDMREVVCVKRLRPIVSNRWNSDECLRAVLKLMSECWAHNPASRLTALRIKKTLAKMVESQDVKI

ALK(L1196M) = target: T28, ALK(L1196M) (Homo sapiens, UniProt Q9UM73, L1196M); experiment: KINOMEscan; conditions: read-out: %Ctrl @ 10000nM
T28 construct: purchased DiscoverX KINOMEscan

KIT(A829P) = target: T29, KIT(A829P) (Homo sapiens, UniProt P10721, A829P); experiment: KINOMEscan; conditions: read-out: %Ctrl @ 10000nM
T29 construct: purchased DiscoverX KINOMEscan

PYK2 = target: T30, PYK2 (Homo sapiens, UniProt Q14289); experiment: KINOMEscan; conditions: read-out: %Ctrl @ 10000nM
T30 construct: purchased DiscoverX KINOMEscan

KIT(V559D,V654A) = target: T31, KIT(V559D,V654A) (Homo sapiens, UniProt P10721, V559D/V654A); experiment: KINOMEscan; conditions: read-out: %Ctrl @ 10000nM
T31 construct: purchased DiscoverX KINOMEscan

CDC2L5 = target: T32, CDC2L5 (Homo sapiens, UniProt Q14004); experiment: KINOMEscan; conditions: read-out: %Ctrl @ 10000nM
T32 construct: purchased DiscoverX KINOMEscan

MLCK = target: T33, MLCK (Homo sapiens, UniProt Q32MK0); experiment: KINOMEscan; conditions: read-out: %Ctrl @ 10000nM
T33 construct: purchased DiscoverX KINOMEscan

WNK2 = target: T34, WNK2 (Homo sapiens, UniProt Q9Y3S1); experiment: KINOMEscan; conditions: read-out: %Ctrl @ 10000nM
T34 construct: DNA label for qPCR (T7 phage fusion or DNA tag); purchased DiscoverX scanMAX; host or cells: E. coli BL21-derived (T7 phage) or HEK-293

TEC = target: T35, TEC (Homo sapiens, UniProt P42680); experiment: KINOMEscan; conditions: read-out: %Ctrl @ 10000nM
T35 construct: purchased DiscoverX KINOMEscan

STK35 = target: T36, STK35 (Homo sapiens, UniProt Q8TDR2); experiment: KINOMEscan KdELECT
T36 construct: DNA tag for qPCR (T7 phage fusion or DNA label); purchased DiscoverX KdELECT; host or cells: E. coli BL21-derived (T7 phage) or HEK-293
T36 sequence (Q8TDR2 whole entry, the tested form may be a part): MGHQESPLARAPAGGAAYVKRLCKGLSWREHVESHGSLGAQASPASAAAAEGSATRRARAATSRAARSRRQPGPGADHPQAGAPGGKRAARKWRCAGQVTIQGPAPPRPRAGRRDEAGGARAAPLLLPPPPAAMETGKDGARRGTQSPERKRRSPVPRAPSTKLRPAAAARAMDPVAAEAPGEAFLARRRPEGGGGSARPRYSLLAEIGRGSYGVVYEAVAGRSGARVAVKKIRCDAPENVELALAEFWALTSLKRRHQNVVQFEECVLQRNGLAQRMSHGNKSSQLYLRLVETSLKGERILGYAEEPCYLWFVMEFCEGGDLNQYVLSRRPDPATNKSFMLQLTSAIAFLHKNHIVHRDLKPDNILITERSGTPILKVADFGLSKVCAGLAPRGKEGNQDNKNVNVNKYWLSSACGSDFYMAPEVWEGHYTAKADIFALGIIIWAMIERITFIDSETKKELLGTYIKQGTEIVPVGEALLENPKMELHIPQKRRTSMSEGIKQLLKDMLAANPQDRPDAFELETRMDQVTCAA

CSF1R = target: T37, CSF1R (Homo sapiens, UniProt P07333); experiment: KINOMEscan; conditions: read-out: %Ctrl @ 10000nM
T37 construct: purchased DiscoverX KINOMEscan

p38-delta = target: T38, p38-delta (Homo sapiens, UniProt O15264); experiment: KINOMEscan; conditions: read-out: %Ctrl @ 10000nM
T38 construct: purchased DiscoverX KINOMEscan

SMILES: CC(C)c1ccc(CC(=O)N2CCN(c3ccc(C#N)nn3)CC2)cc1 [PZ-2891, 6-(4-(2-(4-isopropylphenyl)acetyl)piperazin-1-yl)pyridazine-3-carbonitrile]
- remaining binding at 10 µM (HASPIN): 85%
- remaining binding at 10 µM (MEK6): 94%
- remaining binding at 10 µM (CAMK2D): 91%
- remaining binding at 10 µM (MST1): 86%
- remaining binding at 10 µM (MAP4K3): 94%
- remaining binding at 10 µM (TIE2): 97%
- remaining binding at 10 µM (DAPK1): 63%
- remaining binding at 10 µM (SGK): 61%
- remaining binding at 10 µM (LIMK2): 95%
- remaining binding at 10 µM (PKAC-alpha): 87%
- remaining binding at 10 µM (CDK4): 99%
- remaining binding at 10 µM (MAP3K4): 93%
- remaining binding at 10 µM (MET(M1250T)): 98%
- remaining binding at 10 µM (MLK1): 81%
- remaining binding at 10 µM (MEK1): 76%
- remaining binding at 10 µM (MRCKB): 100%
- remaining binding at 10 µM (PRP4): 86%
- remaining binding at 10 µM (NEK4): 95%
- remaining binding at 10 µM (WNK1): 100%
- remaining binding at 10 µM (MAP4K5): 100%
- remaining binding at 10 µM (ALK(C1156Y)): 74%
- remaining binding at 10 µM (ROCK1): 100%
- remaining binding at 10 µM (BRAF): 100%
- remaining binding at 10 µM (BUB1): 100%
- remaining binding at 10 µM (KIT(V559D,T670I)): 94%
- remaining binding at 10 µM (MET(Y1235D)): 66%
- remaining binding at 10 µM (BMPR1A): 100%
- remaining binding at 10 µM (ALK(L1196M)): 73%
- remaining binding at 10 µM (KIT(A829P)): 91%
- remaining binding at 10 µM (PYK2): 90%
- remaining binding at 10 µM (KIT(V559D,V654A)): 73%
- remaining binding at 10 µM (CDC2L5): 81%
- remaining binding at 10 µM (MLCK): 100%
- remaining binding at 10 µM (WNK2): 87%
- remaining binding at 10 µM (TEC): 79%
- Kd (STK35; STK35): > 30 µM
- Kd (STK35; STK35 Replicate ID = 1): > 30 µM
- Kd (STK35; STK35 Replicate ID = 2): > 30 µM
- remaining binding at 10 µM (CSF1R): 91%
- remaining binding at 10 µM (p38-delta): 76%
